Where two headings read alike, the source gives them in different places.
What was measured:
BVMOAf1 (PTDH-BVMOAf1) [1] = target: T1, BVMOAf1 (PTDH-BVMOAf1) (Aspergillus fumigatus, UniProt Q4WAZ0); test: NADPH consumption at […] nm; assay type: biochemical; conditions: air-saturated 50 mM Tris/HCl pH 8.0, 25°C
T1 construct: gene psoF; Truncated N-terminal BVMO domain (1614 bp, 367 C-terminal residues of the 905 deleted); pCRE2 vector, E. coli TOP10; fusion kept; natural Gln in place of His in the BVMO motif (H173Q)
T1 sequence (Q4WAZ0 1-538): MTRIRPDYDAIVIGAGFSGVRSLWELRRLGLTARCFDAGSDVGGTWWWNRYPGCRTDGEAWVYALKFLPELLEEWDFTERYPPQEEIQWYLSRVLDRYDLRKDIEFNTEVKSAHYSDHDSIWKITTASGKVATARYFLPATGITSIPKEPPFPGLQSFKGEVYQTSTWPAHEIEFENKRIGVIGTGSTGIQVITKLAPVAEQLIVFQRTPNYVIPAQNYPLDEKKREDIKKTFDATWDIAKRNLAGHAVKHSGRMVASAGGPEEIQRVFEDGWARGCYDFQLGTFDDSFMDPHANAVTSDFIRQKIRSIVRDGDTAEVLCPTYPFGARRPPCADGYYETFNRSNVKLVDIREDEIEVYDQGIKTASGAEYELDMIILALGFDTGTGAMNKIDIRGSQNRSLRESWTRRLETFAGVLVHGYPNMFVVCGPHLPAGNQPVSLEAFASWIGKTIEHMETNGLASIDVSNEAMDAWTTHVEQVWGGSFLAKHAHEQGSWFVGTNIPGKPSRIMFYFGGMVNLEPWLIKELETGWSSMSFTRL

BVMOAf1 (PTDH-BVMOAf1) [2] = target: T1, BVMOAf1 (PTDH-BVMOAf1); test: UV-Vis absorption of purified holo flavoprotein, FAD release by SDS; assay type: binding; conditions: FAD 100 μM in lysis buffer; Tris/HCl pH 8.0
CCSCc1ccccc1 = test: purified protein; assay type: biochemical, Aspergillus fumigatus; conditions: 100 μM NADPH, air-saturated 50 mM Tris/HCl pH 8.0, 25°C
[3] = 100 μM NADPH, read-out: K M (μ M )

NC(=O)C1=CN([C@@H]2O[C@H](COP(=O)(O)OP(=O)(O)OC[C@H]3O[C@@H](n4cnc5c(N)ncnc54)[C@H](O)[C@@H]3O)[C@@H](O)[C@H]2O)C=CC1
Km (BVMOAf1 (PTDH-BVMOAf1) [1]; [3]): 118.8 ± 0.1 µM

Cc1cc2nc3c(=O)[nH]c(=O)nc-3n(C[C@H](O)[C@H](O)[C@H](O)COP(=O)(O)OP(=O)(O)OC[C@H]3O[C@@H](n4cnc5c(N)ncnc54)[C@H](O)[C@@H]3O)c2cc1C [FAD]
UV-Vis absorption of purified holo flavoprotein, FAD release by SDS (BVMOAf1 (PTDH-BVMOAf1) [2]): yellow fractions containing FAD-bound protein

NC(=O)C1=CN([C@@H]2O[C@H](COP(=O)(O)OP(=O)(O)OC[C@H]3O[C@@H](n4cnc5c(N)ncnc54)[C@H](OP(=O)(O)O)[C@@H]3O)[C@@H](O)[C@H]2O)C=CC1 [NADPH]
Km (BVMOAf1 (PTDH-BVMOAf1) [1]; rac-bicyclo[3.2.0]hept-2-en-6-one 2.0 mM (typical mixture)): < 5 µM

NC(=O)C1=CN([C@@H]2O[C@H](COP(=O)(O)OP(=O)(O)OC[C@H]3O[C@@H](n4cnc5c(N)ncnc54)[C@H](OP(=O)(O)O)[C@@H]3O)[C@@H](O)[C@H]2O)C=CC1 [[drawing 5]]
Km (BVMOAf1 (PTDH-BVMOAf1) [1]; [3]): 179.8 ± 0.1 µM

BVMOAf1 (PTDH-BVMOAf1) (Aspergillus fumigatus Af293)
Km (CCSCc1ccccc1): 23.5 ± 0.1 µM | kcat (CCSCc1ccccc1): 0.47 ± 0.04 s⁻¹ | kcat/Km (CCSCc1ccccc1): 20000 M⁻¹ s⁻¹

— paper PMC3762062, “Cloning, overexpression and biocatalytic exploration of a novel Baeyer-Villiger monooxygenase from Aspergillus fumigatus Af293” (AMB Express, 2013)
